# Results taken from ChEMBL document CHEMBL2417385, “A new strategy for the synthesis of crucigasterin A, and cytotoxic activity of this compound and its related analogues” (Bioorg Med Chem Lett, 2013).
# Key:
# Assay type in all cases: functional, cell-based
# [1] = system: A549; assay: Cytotoxicity against human A549 cells after 2 days by MTT assay; details: A549, 48 h
# [2] = system: MCF7; assay: Cytotoxicity against human MCF7 cells after 2 days by MTT assay; details: MCF7, 48 h
# [3] = system: MDA-MB-231; assay: Cytotoxicity against human MDA-MB-231 cells after 2 days by MTT assay; details: MDA-MB-231, 48 h
# [4] = system: HeLa; assay: Cytotoxicity against human HeLa cells assessed as growth inhibition after 2 days by MTT assay; details: 48 h
structure (smiles),measurement,setting,value
C=CCCCC/C=C/C=C/C[C@H](O)[C@H](C)N,IC50,[1],14.7 µM
same,IC50,[2],> 50 µM
same,IC50,[3],8.03 µM
same,IC50,[4],5.91 µM
C=CCCCCCC/C=C\C[C@H](O)[C@H](C)N,IC50,[1],> 50 µM
same,IC50,[2],15.5 µM
same,IC50,[3],10.4 µM
same,IC50,[4],19.2 µM
CCCCCC/C=C\CC/C=C/C[C@H](O)[C@H](C)N,IC50,[1],7.81 µM
same,IC50,[2],13.5 µM
same,IC50,[3],12.7 µM
same,IC50,[4],39.7 µM
COc1cccc2c1C(=O)c1c(O)c3c(c(O)c1C2=O)C[C@@](O)(C(=O)CO)C[C@@H]3O[C@H]1C[C@H](N)[C@H](O)[C@H](C)O1 [DOXORUBICIN],IC50,[1],0.459 µM
same,IC50,[2],13.5 µM
same,IC50,[3],0.91 µM
same,IC50,[4],0.509 µM
